# Assay results published in patent US20130041023A1, “Composition for Preventing or Treating Rotavirus Infection Comprising Licorice Extract” (priority 2010, published 2013).
# Read-outs that look alike come from different tables or passages of the source.
# Key:
# [1] = system: porcine rotavirus KJ205 (G5P[7]); assay: CPE inhibition effect, porcine rotavirus KJ205 (TF-104 cells treated after virus inoculation); assay type: cell-based; details: for EC50: TF-104 cells; for selectivity ratio: rhesus monkey, read-out: S.I. (selective index, CC50/EC50)
# Protocol: In order to the CPE (cytopathic effect) reduction effects and virucidal effects of the compounds separated from licorice on bovine rotavirus NCDV (G6P[1]) and porcine rotavirus KJ205 […][7]), the following in vitro experiment was performed using the fetal rhesus monkey kidney cell line TF-104. Inhibition %=(O.D) value of sample-treated group-(O.D) value of infected+non-administered control/(O.D) value of non-infected+non-administered control-(O.D) value of infected+non-administered control×100 [Equation 1] In the above equation, the O.D value means the absorbance measured at 540 nm. Meanwhile, in order to examine the inhibitory effects of the compounds separated from licorice on the CPE of bovine rotavirus NCDV (G6P[1]) and porcine rotavirus KJ205 […][7]), […] were washed twice with alpha-MEM containing only an antibiotic, after which the viruses were inoculated into the TF-104 cells and incubated at 37° C. for 1 hour. After 1 hour, the inoculated virus liquids were completely removed, the virus-inoculated TF-104 cells were treated with varying concentrations of the licorice extract and the polyphenolic compounds. Further, the cytopathic effect inhibition (inhibition %) of the compounds separated from licorice were calculated using equation 1 above in the same manner as described above, and the results of the calculation are shown in Table 1 below.
# [2] = Cytotoxicity (CC50) in TF-104 cells; assay type: cell-based; details: rhesus monkey, TF-104 cells (fetal rhesus monkey kidney cell line)
# Protocol: In order to the CPE (cytopathic effect) reduction effects and virucidal effects of the compounds separated from licorice on bovine rotavirus NCDV (G6P[1]) and porcine rotavirus KJ205 […][7]), the following in vitro experiment was performed using the fetal rhesus monkey kidney cell line TF-104. First, TF-104 cells were added to a 96-well microplate at a density of 4×10^4 cells/well and cultured with alpha-MEM medium (penicillin 100 units, […], 5% FBS). When the TF-104 cells formed a monolayer, the cells were washed twice with alpha-MEM containing only an antibiotic. Each of NCDV and KJ205 was diluted to an MOI of 0.01 and placed in EP tubes. Each of the licorice extract and the polyphenolic compounds, diluted with dimethylsulfoxide (DMSO), was placed in each of the tubes at varying concentrations and then allowed to react at 4° C. for 1 hour. After 1 hour, the reaction material was inoculated into the washed TF-104 cells in such a manner that one sample concentration was inoculated into 3 wells (hereinafter referred to as “sample-treated groups”). Meanwhile, a non-infected+non-administered control (cell group not infected with NCDV or KJ205 and not treated with the compound) and an infected+non-administered control (virus control; a cell group infected with NCDV or KJ205, but not treated with the compound) were allowed to react under the same conditions for 1 hour, and then inoculated into the TF-104 cells, which were then incubated at 37° C. for 1 hours. After 1 hour, the medium was completely removed from the plate, which was then washed once with PBS. Then, […] medium containing 1 mg/mL of trypsin and antibiotic were dispensed into each well of the plate and incubated at 37° C. for 5-6 days. In the case of the infected +non-administered control group, incubation was performed for 5-6 days until the cytopathic effect (CPE) of the virus clearly appeared. […] After 5-6 days of the incubation, in order to examine the viability of the cells, […] solution (Sigma, UK) was added to each well of the place and allowed to react at 37° C. for 2 hours. Then, the medium was removed, […] solution (1% glacial acetic acid, 49% DDW, 50% EtOH) was added to each well, and after 15 minutes, the absorbance at 540 nm was measured. The virucidal effects (inhibition %) of the inventive compounds separated from licorice compared to the non-infected+non-administered control group and the infected+non-administered control group were calculated using the following equation 1, and the results of the calculation are shown in Table 1 below.
# [3] = system: porcine rotavirus KJ205 (G5P[7]); assay: Virucidal effect against porcine rotavirus KJ205 (sample pre-reacted with virus, neutral red readout in TF-104 cells); assay type: cell-based; details: for EC50: TF-104 cells; for virucidal effect, result in words: bovine and/or porcine rotavirus as worded
# Protocol: (§1) In order to the CPE (cytopathic effect) reduction effects and virucidal effects of the compounds separated from licorice on bovine rotavirus NCDV (G6P[1]) and porcine rotavirus KJ205 (G5P[7]), the following in vitro experiment was performed using the fetal rhesus monkey kidney cell line TF-104.
# First, TF-104 cells were added to a 96-well microplate at a density of 4×10^4 cells/well and cultured with alpha-MEM medium (penicillin 100 units, […], 5% FBS). When the TF-104 cells formed a monolayer, the cells were washed twice with alpha-MEM containing only an antibiotic. Each of NCDV and KJ205 was diluted to an MOI of 0.01 and placed in EP tubes. Each of the licorice extract and the polyphenolic compounds, diluted with dimethylsulfoxide (DMSO), was placed in each of the tubes at varying concentrations and then allowed to react at 4° C. for 1 hour. After 1 hour, the reaction material was inoculated into the washed TF-104 cells in such a manner that one sample concentration was inoculated into 3 wells (hereinafter referred to as “sample-treated groups”). Meanwhile, a non-infected+non-administered control (cell group not infected with NCDV or KJ205 and not treated with the compound) and an infected+non-administered control (virus control; a cell group infected with NCDV or KJ205, but not treated with the compound) were allowed to react under the same conditions for 1 hour, and then inoculated into the TF-104 cells, which were then incubated at 37° C. for 1 hours. After 1 hour, the medium was completely removed from the plate, which was then washed once with PBS. Then, […] medium containing 1 mg/mL of trypsin and antibiotic were dispensed into each well of the plate and incubated at 37° C. for 5-6 days. In the case of the infected +non-administered control group, incubation was performed for 5-6 days until the cytopathic effect (CPE) of the virus clearly appeared. […] After 5-6 days of the incubation, in order to examine the viability of the cells, […] solution (Sigma, UK) was added to each well of the place and allowed to react at 37° C. for 2 hours. Then, the medium was removed, […] solution (1% glacial acetic acid, 49% DDW, 50% EtOH) was added to each well, and after 15 minutes, the absorbance at 540 nm was measured. The virucidal effects (inhibition %) of the inventive compounds separated from licorice compared to the non-infected+non-administered control group and the infected+non-administered control group were calculated using the following equation 1, and the results of the calculation are shown in Table 1 below.
# Inhibition %=(O.D) value of sample-treated group−(O.D) value of infected+non-administered control/(O.D) value of non-infected+non-administered control−(O.D) value of infected+non-administered control×100 [Equation 1]
# (§2) In the above equation, the O.D value means the absorbance measured at 540 nm.
# [4] = system: bovine rotavirus NCDV (G6P[1]); assay: Virucidal effect against bovine rotavirus NCDV (sample pre-reacted with virus, neutral red readout in TF-104 cells); assay type: cell-based
# Protocol: as §1
# First, TF-104 cells were added to a 96-well microplate at a density of 4×10^4 cells/well and cultured with alpha-MEM medium (penicillin 100 units, […], 5% FBS). When the TF-104 cells formed a monolayer, the cells were washed twice with alpha-MEM containing only an antibiotic. Each of NCDV and KJ205 was diluted to an MOI of 0.01 and placed in EP tubes. […] Then, the medium was removed, […] solution (1% glacial acetic acid, 49% DDW, 50% EtOH) was added to each well, and after 15 minutes, the absorbance at 540 nm was measured. The virucidal effects (inhibition %) of the inventive compounds separated from licorice compared to the non-infected+non-administered control group and the infected+non-administered control group were calculated using the following equation 1, and the results of the calculation are shown in Table 1 below. […]
# as §2
# [5] = CPE inhibition effect section, KJ205 (G5P[7]), read-out: CC50
# [6] = Virucidal effect, KJ205 (G5P[7])
SMILES,EC50 [1] [µM],selectivity ratio [1],"CC50 [2, 5] [µM]","EC50 [3, 6] [µM]","virucidal effect, result in words [3]",melting point [°C],"EC50 ([4]; Rotavirus A, TF-104 cells, read-out: EC50 (50% concentration from inhibition concentration)) [µM]","selectivity ratio ([4]; rhesus monkey, read-out: S.I. (selective index, CC50/EC50))","selectivity ratio ([3]; rhesus monkey, Virucidal effect, KJ205 (G5P[7]), read-out: S.I. (selective index, CC50/EC50))","CC50 ([2]; Virucidal effect section, NCDV (G6P[1]) columns, read-out: CC50 (50% concentration from cytotoxic concentration)) [µM]"
"O=C(/C=C/c1ccc(O)cc1)c1ccc(O)cc1O [Compound 1, isoliquiritigenin]",35.3,3.9,138,,,,,,,
"COc1cc(O)ccc1C(=O)/C=C/c1ccc(O)cc1 [Compound 2, 2-methoxyisoliquiritigenin]",24,11.7,280,,,,,,,
"COc1c(CC=C(C)C)c(O)cc2oc(-c3ccc(O)cc3O)cc12 [Compound 3, licocoumarone]",26.1,2.3,59.6,26.1,good inhibitory activities against bovine and porcine rotaviruses,183 to 185,,,,
"COc1c(CC=C(C)C)c(O)cc2c1CC(c1ccc(O)cc1O)CO2 (stereo not drawn) [Compound 4, glyasperin C]",,,,18.7,selective virucidal effects against porcine rotavirus,,26.2,1.5,2.1,39.1
